Measurements published in patent publication US6750244B2, “Compounds active at a novel site on receptor-operated calcium channels useful for treatment of neurological disorders and diseases” (NPS Pharmaceuticals, Inc., priority 1993, dated 2004).
Where two headings read alike, the source gives them in different places.

How the values were obtained:
[1] = tested on: neuronal vacuolization; details: i.p.
[2] = tested on: NMDA receptor; assay: Inhibition of NMDA/glycine-induced increases in intracellular calcium in cultured rat cerebellar granule cells (RCGC); format: cell-based; details: read-out: IC50 against NMDA receptor-mediated increases in [Ca2+]i in cerebellar granule cells
[3] = tested on: mouse cortical neurons; assay: cells; details: Cortical neurone, read-out: IC50, prevention of NMDA-induced cell death
Description: The effective concentrations of NMDA receptor antagonists vary depending on the particular experimental conditions and the type of cell studied (cortical, hippocampal, striatal).

[4] = tested on: thermal nociception; format: in vivo, mice
[5] = tested on: mean arterial blood pressure; details: 1.5 μmoles/kg i.v., rats
[6] = tested on: NMDA receptors; details: patch clamp
[7] = tested on: PCP-like discriminative stimulus effects; format: in vivo, rats; details: 1-30 mg/kg i.p.
Description: In this assay, rats who have been trained to lever press for food reinforcement must select which of two levers in their cages is correct. The only stimulus they hive for selecting the correct lever is their ability to detect whether they received a PCP or vehicle injection After about two months of training, rats become very good at discriminating PCP from vehicle injections and can then be tested with other drugs to determine if they are discriminated as PCP. When tested in this procedure, other drugs which are known to produce a PCP-like intoxication substitute for PCP. These drugs include various PCP analogs such as ketamine and the noncompetitive NMDA receptor antagonist, MK-801.

[8] = tested on: T1, L-type calcium channel; assay: Inhibition of KCl depolarization-induced increases in intracellular calcium in cultured rat cerebellar granule cells; format: cell-based; details: read-out: L-type calcium channel: estimated IC50, KCl depolarization-induced increases in intracellular calcium; cultured rat cerebellar granule cells
T1 construct: L-type calcium channel: estimated IC50, KCl depolarization-induced increases in intracellular calcium; other: cultured
Description: (§1) The ability of arylalkylamines to inhibit dihydropyridine-sensitive Ca^2+ channels was examined in cerebellar granule cells and a rat aortic smooth muscle cell line, A7r5 cells.

[9] = biological target: AMPA receptor; details: read-out: IC50 for the AMPA receptor-mediated response; rat hippocampal slices
Experimental: (§2) Glutamate-mediated transmission at synapses of Schaffer collateral fibers and CA1 pyramidal cells was measured in slices of rat brain containing the hippocampus. This assay measures electrophysiologically the postsynaptic depolarization caused by the presynaptic release of glutamate, and can readily distinguish synaptic transmission mediated by NMDA or AMPA receptors.

[10] = tested on: NMDA receptor; details: rat hippocampal slices
Experimental: as §2

[11] = tested on: thermal nociception; format: in vivo, rats; details: 0.3-3 nmol i.th.
Experimental: In this standard assay, the thermal nociceptive stimulus was 52° C. warm water with the latency to tail flick or withdrawal taken as the endpoint.

[12] = tested on: thermal nociception; format: in vivo, rats; details: 0.3-3 nmol i.th.; remark: listed apart in the source
Experimental: In these experiments, a 52° C. hot plate was used as the nociceptive stimulus.

[13] = tested on: formalin-induced flinching; format: in vivo, Sprague-Dawley rats; details: 0.3-10 nmol i.th.
[14] = tested on: motor performance; details: 32 mg/kg s.c.
Description: In this assay, animals are placed on a wire-holed grid suspended from a rotating metal bar which can be inverted. The animals are then scored for their ability to climb to the top or hang on to the grid. […] This assay provides an index of “behavioral disruption” that may result from ataxia, loss of the righting reflex, sedation, or muscle relaxation.

[15] = tested on: acetic acid-induced writhing; format: in vivo, mice; details: i.p.
[16] = biological target: NMDA receptor-ionophore complex (site labeled by [3H]MK-801); assay: Inhibition of [3H]MK-801 binding in rat cortical/hippocampal washed membrane preparations; details: read-out: IC50 (μM) vs. [3H]MK-801; rat cortical/hippocampal washed membranes
[17] = tested on: sound-induced seizures; assay: Sound-induced seizures in Frings mice (reflex epilepsy); format: in vivo
[18] = tested on: locomotor activity; details: 32 mg/kg s.c.
Experimental: The first assay simply monitors locomotor activity during the first hour following peripheral (s.c. or i.p.) administration of test substance. […] Activity was quantified by counting the number of breaks in a phototube grid in a 60 min period.

[19] = tested on: forebrain ischemia (neuronal cell death); format: in vivo, gerbil; details: 10 mg/kg; 7 days post-ischemia
Experimental: Blood flow to the brain was interrupted for 7 minutes by clamping the carotid arteries. The test compounds were administered as a 'single dose given intraperitoneally (i.p.) 30 minutes after reinstating blood flow. During the course of these experiments, the core body temperature of the animals was maintained at 37° C. to prevent any hypothermic reaction. […]

[20] = tested on: focal cerebral ischemia; assay: Middle cerebral artery occlusion, permanent, surgical ligation; format: in vivo, rat; details: single dose 30 mg/kg i.p. 30 minutes after occlusion; 24 hours
Experimental: In the first study using this stroke model, one cerebral artery was permanently occluded by surgical ligation. The test compounds were administered 30 minutes after the occlusion by a single intraperitoneal (i.p.) injection. During the course of these experiments, the core body temperature of the animals was maintained at 37° C. to prevent any hypothermic reaction. Brains were assessed histologically for neuronal cell loss 24 hours later. Infarct volumes were calculated using the area of histological pallor from 10 slides and integrating the distance between each successive section.

[21] = biological target: voltage-sensitive Ca2+ channels (Rattus norvegicus, UniProt P22002); assay: cell-based
Chain of voltage-sensitive Ca2+ channels (P22002 whole entry): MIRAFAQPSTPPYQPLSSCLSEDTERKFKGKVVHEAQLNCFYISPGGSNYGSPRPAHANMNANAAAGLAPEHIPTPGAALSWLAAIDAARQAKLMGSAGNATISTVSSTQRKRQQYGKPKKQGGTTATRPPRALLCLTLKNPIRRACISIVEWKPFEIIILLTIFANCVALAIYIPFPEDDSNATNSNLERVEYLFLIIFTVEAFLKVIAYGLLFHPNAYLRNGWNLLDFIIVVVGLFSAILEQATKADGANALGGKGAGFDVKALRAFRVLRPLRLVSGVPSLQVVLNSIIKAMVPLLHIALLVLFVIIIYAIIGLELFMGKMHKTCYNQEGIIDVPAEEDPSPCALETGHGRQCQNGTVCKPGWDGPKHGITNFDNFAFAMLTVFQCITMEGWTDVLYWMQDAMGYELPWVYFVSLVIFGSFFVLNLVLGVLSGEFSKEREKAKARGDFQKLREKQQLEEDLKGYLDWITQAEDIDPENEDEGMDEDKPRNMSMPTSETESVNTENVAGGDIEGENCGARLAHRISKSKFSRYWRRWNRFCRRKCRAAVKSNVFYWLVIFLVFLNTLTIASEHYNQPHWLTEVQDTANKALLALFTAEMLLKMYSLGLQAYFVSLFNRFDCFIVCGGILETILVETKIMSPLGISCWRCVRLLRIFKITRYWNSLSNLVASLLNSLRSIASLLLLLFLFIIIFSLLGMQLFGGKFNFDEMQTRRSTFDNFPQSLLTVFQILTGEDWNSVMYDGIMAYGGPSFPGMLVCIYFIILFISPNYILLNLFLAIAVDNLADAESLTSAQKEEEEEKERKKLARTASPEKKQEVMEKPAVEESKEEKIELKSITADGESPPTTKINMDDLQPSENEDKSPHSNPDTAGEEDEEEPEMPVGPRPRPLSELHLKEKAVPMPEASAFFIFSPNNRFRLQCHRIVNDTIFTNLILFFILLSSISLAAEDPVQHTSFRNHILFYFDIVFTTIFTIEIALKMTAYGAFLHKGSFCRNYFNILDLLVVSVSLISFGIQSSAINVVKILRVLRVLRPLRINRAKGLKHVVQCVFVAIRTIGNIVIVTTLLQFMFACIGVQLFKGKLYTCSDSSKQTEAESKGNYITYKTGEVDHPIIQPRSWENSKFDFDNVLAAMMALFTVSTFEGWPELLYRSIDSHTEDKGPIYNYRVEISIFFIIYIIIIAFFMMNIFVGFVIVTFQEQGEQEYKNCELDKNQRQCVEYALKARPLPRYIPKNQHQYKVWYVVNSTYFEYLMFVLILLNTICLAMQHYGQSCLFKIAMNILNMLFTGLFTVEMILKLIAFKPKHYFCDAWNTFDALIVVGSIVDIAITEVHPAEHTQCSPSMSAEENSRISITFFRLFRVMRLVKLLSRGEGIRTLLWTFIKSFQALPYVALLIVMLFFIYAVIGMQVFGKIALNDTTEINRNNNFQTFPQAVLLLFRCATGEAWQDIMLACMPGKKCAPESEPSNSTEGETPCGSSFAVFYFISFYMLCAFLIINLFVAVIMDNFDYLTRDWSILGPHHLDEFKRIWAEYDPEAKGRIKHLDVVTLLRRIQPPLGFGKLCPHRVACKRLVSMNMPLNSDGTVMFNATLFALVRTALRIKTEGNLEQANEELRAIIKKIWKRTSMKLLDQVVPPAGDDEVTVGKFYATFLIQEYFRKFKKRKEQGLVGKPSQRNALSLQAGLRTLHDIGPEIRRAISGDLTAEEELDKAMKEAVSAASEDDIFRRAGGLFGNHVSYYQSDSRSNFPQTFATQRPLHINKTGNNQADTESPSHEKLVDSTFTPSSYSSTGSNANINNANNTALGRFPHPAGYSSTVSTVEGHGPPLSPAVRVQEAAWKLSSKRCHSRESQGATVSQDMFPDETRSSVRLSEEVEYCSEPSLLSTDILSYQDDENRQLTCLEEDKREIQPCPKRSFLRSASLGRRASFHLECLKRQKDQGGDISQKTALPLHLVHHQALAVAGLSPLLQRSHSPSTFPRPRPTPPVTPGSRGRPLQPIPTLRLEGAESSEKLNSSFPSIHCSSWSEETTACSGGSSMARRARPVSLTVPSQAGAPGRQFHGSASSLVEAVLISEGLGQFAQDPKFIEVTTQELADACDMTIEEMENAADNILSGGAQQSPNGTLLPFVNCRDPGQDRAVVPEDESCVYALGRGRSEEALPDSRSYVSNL
Description: as §1

[22] = Acute motor impairment (rotorod) in mice; details: Frings, mouse, in vivo, ip
Experimental: (§3) In this assay, Frings and CF1 mice were injected with test compound and placed on a knurled rod which rotated at a speed of 6 rpm. The ability of the mice to maintain equilibrium for long periods of time was determined; those mice that were unable to maintain equilibrium on the rotorod for 1 min in each of 3 trials were considered impaired.

[23] = tested on: motor performance; assay: Acute motor impairment (rotorod) in mice
Experimental: as §3

[24] = tested on: maximal electroshock-induced seizures; assay: Maximal electroshock-induced seizures in mice; format: in vivo; details: CF1 mice, 4 μg i.c.v.

**Q.** With `N=C(N)NCCCC(N)C(=O)NCCCNCCCNCCCCCNC(=O)C(CC(N)=O)NC(=O)Cc1ccc(O)cc1O` (stereo not drawn) [Compound 1] as the compound, how does the “dose without neuronal vacuolization” value [1] read?
**A.** Its value is 100 mg/kg.

**Q.** And the IC50 [2]?
**A.** The IC50 was 0.102 µM.

**Q.** What about the IC50 [3] of the same compound?
**A.** The IC50 was 70 µM.

**Q.** And the “increase in latency to foot licking” value ([4]; 4 mg/kg s.c.)?
**A.** Its value is 136%.

**Q.** What about the “increase in latency to jumping” value ([4]; 32 mg/kg s.c.) of the same compound?
**A.** Its value is 360%.

**Q.** And the “Drop in Mean Arterial Blood Pressure” value [5]?
**A.** The value was 65 mm Hg at.

**Q.** And the “Drop in Mean Arterial Blood Pressure: duration” value [5]?
**A.** Its value is “i.v., 60 min”.

**Q.** What about the “effect on responses to NMDA and kainate” value [6] of the same compound?
**A.** Its value is “blocked responses to NMDA at nanomolar concentrations without affecting the responses to kainate”.

**Q.** What about the “substitution for PCP” value [7] of the same compound?
**A.** Its value is “did not substitute for PCP”.

**Q.** And the IC50 [8]?
**A.** The IC50 was 257 µM.

**Q.** And the IC50 [9]?
**A.** The IC50 was 647 µM.

**Q.** What about the “Suppression of NMDA Receptor-Mediated Synaptic Transmission (concentration which suppresses)” value [10] of the same compound?
**A.** Its value is 10 to 30 µM.

**Q.** And the IC50 ([10]; read-out: IC50 for the NMDA receptor-mediated response)?
**A.** Its IC50 is 20 µM.

**Q.** What about the “analgesic effect, tail flick (52° C. warm water)” value [11] of the same compound?
**A.** The value was “dose- and time-dependent analgesic effect”.

**Q.** What about the “antinociceptive effect, hot plate” value [12] of the same compound?
**A.** The value was “dose- and time-dependent antinociceptive effects”.

**Q.** And the “late-phase flinching, administered after the formalin” value ([13]; 10 min after formalin)?
**A.** Its value is “significance was achieved only at the 10 nmol dose”.

**Q.** What about the “flinching behaviors, pretreatment to formalin” value ([13]; 10 min prior to formalin) of the same compound?
**A.** The value was “effectively inhibited both early- and late-phase flinching behaviors”.

**Q.** And the “motor performance in the inverted grid assay” value [14]?
**A.** Its value is “did not lessen the ability of DBA/2 mice to right themselves”.

**Q.** And the “IC50, inhibition of acetic acid-induced writhing” value [15]?
**A.** The value was 10 mg/kg.

**Q.** And the IC50 [16]?
**A.** The IC50 was 126 µM.

**Q.** And the “IC50, prevention of sound-induced seizures” value ([17]; intracerebroventricular (i.c.v.) injection)?
**A.** The value was 0.63 µg.

**Q.** What about the “IC50, prevention of sound-induced seizures” value ([17]; intraperitoneal injection) of the same compound?
**A.** Its value is 14.3 mg/kg.

**Q.** And the “effect on locomotor activity” value [18]?
**A.** The value was “did not elicit hyperactivity”.

**Q.** What about the “reduction in neuronal death / protection in region CA1 of the hippocampus” value [19] of the same compound?
**A.** Its value is 23%.

**Q.** And the “protection against neuronal cell loss” value [20]?
**A.** The value was “approximately 15%”.

**Q.** What about the IC50 [21] of the same compound?
**A.** Its IC50 is 808 µM.

**Q.** What about the TD50 [22] of the same compound?
**A.** The TD50 was 16.8 mg/kg.

**Q.** And the “motor impairment in CF1 mice” value ([23]; 4 μg i.c.v.)?
**A.** Its value is “motor impairment”.

**Q.** And the “dose that had to be exceeded before motor toxicity was evident” value ([23]; Frings mice, i.c.v.)?
**A.** The value was “exceeded 1.56 μg”.

**Q.** And the “effect against seizures elicited by maximal electroshock” value [24]?
**A.** Its value is “effective”.
